# Measurements as given in patent US4764361A, “Pharmaceutical compositions” (Imperial Chemical Industries PLC, priority 1987, dated 1988).
# Values joined by “and” are separate entries in the source; they are usually repeats but may differ in a detail not shown here. Identical values can stand only once.
# Legend:
# Type in all cases: in vivo
# [1] = tested on: inflammation on the mouse ear induced by the irritant, croton oil; assay: Test A: inhibition of inflammation on the mouse ear induced by croton oil; conditions: for % Inhibition / % increase in ear weight ± SEM / ED50 application rate: topical; for % Inhibition / % increase in ear weight ± SEM: 4 hours; for ED50 application rate: Test A; for activity as topical anti-inflammatory agent: application rate of 250 micrograms/ear
# Experimental: (a) in a standard test involving the inhibition of inflammation on the mouse ear induced by the irritant, croton oil (Test A);
# (a) Method: Groups of mice were dosed with an acetone solution of test compound or vehicle (acetone) pre-mixed with an equal volume of 4% w/v croton oil in acetone topically to the right ear (10 μl volume). Four hours later, the animals were killed and both the left (control) and right (treated) ears were removed and weighed. The percentage increase in ear weight of the treated against control was then calculated. The anti-inflammatory activity was finally expressed as percentage inhibition for the test compound dosed group in comparison with the vehicle dosed control group.
# [2] = tested on: oxazolone induced contact dermatitis (erythema); assay: Test C: oxazolone induced contact dermatitis in the domestic pig
# Experimental: (c) in a standard test involving oxazolone induced contact dermatitis in the domestic pig (Test C).
# Method: Domestic pigs were sensitised by topical application of 0.4 ml of a 10% w/v solution of oxazolone in acetone to the neck region on two occasions two weeks apart. Six paired sites were then prepared and delineated with one site from each pair to the left and one to the right of the mid-line of the back of the animal. […] The left hand site of the second three pairs was similarly treated with 0.05 ml of a second solution of the test compound in acetone at pH 5. All of the righthand sites were used as controls and were treated with 0.05 ml of acetone (acidified to pH 5 with citric acid). After 24 hours, the same treatment was repeated followed immediately by a challenge of 0.025 ml of a 1% w/v solution of oxazolone in acetone to the 1st and 4th pairs of sites, of 5% w/v solution of oxazolone in acetone to the 2nd and 5th pair of sites, and of 10% w/v solution of oxazolone in acetone to the 3rd and 6th pairs of sites. […] An inflammatory index was obtained by multiplying the area and erythema readings together. By comparison of the values for the treated and control sites, the percentage reduction in erythema of the test compound could be assessed.
# cardiovasculature = assay: adverse effects on the cardiovasculature after topical administration; conditions: large doses administered topically to the skin
# [3] = tested on: delayed hypersensitivity reaction to the contact irritant oxazolone; assay: Test B: inhibition of the delayed hypersensitivity reaction to oxazolone in mice; conditions: for Inhibition: 24 hours, free base in acidified acetone pH 5
# Experimental: (b) in a standard test involving the inhibition of the delayed hypersensitivity reaction to the contact irritant, 4-ethoxymethylene-2-phenyloxazolone (hereinafter referred to as oxazolone) in mice (Test B); and
# (a) Method: Mice were sensitised by the topical application of a 10 μl portion of a 0.5% w/v solution of oxazolone in acetone. After 7 days, a 10 μl portion of a solution of the test compound in acetone (acidified to pH 5 with citric acid*) or, for control purposes, just the acidified acetone vehicle, was applied to the right ears of the mice and immediately followed by an application of 10 μl of 0.5% w/v solution of oxazolone in acetone. After 24 hours the animals were killed, the ears removed and results calculated as for Test A above.
# *Note: acidified acetone was used to eliminate any possible reaction between the basic test compound of formula I and the oxazolone.]
# [4] = 1% w/v in aqueous ethanol containing 40% w/v N-methylpyrrolidone
# [5] = Average of experiments 1-3, 2% w/v in acetone pH 5
# [6] = Experiment 1, 2% w/v in acetone pH 5, listed as (-)-optically active (S) form
# [7] = Experiment 2, 2% w/v in acetone pH 5
# [8] = Experiment 3, 2% w/v in acetone pH 5
# [9] = cream formulation II, 0.25% w/w
structure (smiles),measurement,setting,value
"C[C@]12CCC(=O)C=C1CC[C@@H]1[C@@H]2[C@@H](O)C[C@@]2(C)[C@H]1CC[C@]2(O)C(=O)CO [hydrocortisone, reference compound]",Inhibition,"[1]; similar test conditions, 25 μg/ear",approximately 70%
same,% of sites in which erythema is inhibited by 30%,[2]; [4],67%
same,% of sites in which erythema is inhibited by 50%,[2]; [4],28%
same,% of sites in which erythema is inhibited by 70%,[2]; [4],6%
"CC(C)C(=O)NCCNCC(O)COc1ccccc1 (racemic) [racemate, N-(2-[2-hydroxy-3-phenoxypropyl]aminoethyl)isobutyramide]",% Inhibition,[1]; 2.5 μg/ear,25.6%
same,% increase in ear weight ± SEM,[1]; 2.5 μg/ear,59.1 ± 5.92%
same,% Inhibition,[1]; 25 μg/ear,49.3%
same,% increase in ear weight ± SEM,[1]; 25 μg/ear,40.2 ± 4.88%
same,% Inhibition,[1]; 250 μg/ear,61.8%
same,% increase in ear weight ± SEM,[1]; 250 μg/ear,30.3 ± 4.0%
same,ED50 application rate,[1],44 micrograms/ear
"CCCCC(=O)O[C@]1(C(=O)CO)[C@@H](C)C[C@H]2[C@@H]3CCC4=CC(=O)C=C[C@]4(C)[C@@]3(F)[C@@H](O)C[C@@]21C [BV, betamethasone-17-valerate, reference compound]",% of sites in which erythema is inhibited by 30%,[2]; [4],75%
same,% of sites in which erythema is inhibited by 50%,[2]; [4],38%
same,% of sites in which erythema is inhibited by 70%,[2]; [4],25%
CC(C)C(=O)NCCNC[C@@H](O)COc1ccccc1 [reference compound],activity as topical anti-inflammatory agent,[1],inactive
"CC(C)NCC(O)COc1cccc2ccccc12 (stereo not drawn) [propranolol, reference compound]",activity as topical anti-inflammatory agent,[1],inactive
"CC(C)C(=O)NCCNCC(O)COc1ccccc1 (racemic) [compound of formula I, N-(2-[2-hydroxy-3-phenoxypropyl]aminoethyl)isobutyramide]",overt toxic or adverse effects,[2]; during Test C,no overt toxic or adverse effects were observed
same,adverse effects on the cardiovasculature,cardiovasculature,no adverse effects on the cardiovasculature
"CC(C)C(=O)NCCNC[C@H](O)COc1ccccc1 [(-)-(S) form, (-)-N-(2-[2-hydroxy-3-phenoxypropyl]aminoethyl)isobutyramide]",% Inhibition,[1]; 4.9 μg/ear,23.8%
same,% increase in ear weight ± SEM,[1]; 4.9 μg/ear,65.2 ± 3.17%
same,% Inhibition,[1]; 14.8 μg/ear,46.5%
same,% increase in ear weight ± SEM,[1]; 14.8 μg/ear,45.8 ± 3.96%
same,% Inhibition,[1]; 44.4 μg/ear,52.2%
same,% increase in ear weight ± SEM,[1]; 44.4 μg/ear,40.9 ± 4.02%
same,% Inhibition,[1]; 133.3 μg/ear,66.5%
same,% increase in ear weight ± SEM,[1]; 133.3 μg/ear,28.6 ± 3.56%
same,% Inhibition,[1]; 400 μg/ear,91.8%
same,% increase in ear weight ± SEM,[1]; 400 μg/ear,7.0 ± 1.25%
same,ED50 application rate,[1],29 micrograms/ear
same,Inhibition,[3]; 2.5 μg/ear,20 ± 8%
same,Inhibition,[3]; 25 μg/ear,35 ± 9%
same,Inhibition,[3]; 250 μg/ear,60 ± 7%
same,ED50,[3]; calculated from the dose-inhibition table,91 μg/ear
same,% of sites in which erythema is inhibited by 30%,[2]; [5],71%
same,% of sites in which erythema is inhibited by 50%,[2]; [5],53%
same,% of sites in which erythema is inhibited by 70%,[2]; [5],16%
same,% of sites in which erythema is inhibited by 30%,[2]; [6],80% and 73%
same,% of sites in which erythema is inhibited by 50%,[2]; [6],60% and 36%
same,% of sites in which erythema is inhibited by 30%,[2]; [7],50%
same,% of sites in which erythema is inhibited by 50%,[2]; [7],50%
same,% of sites in which erythema is inhibited by 70%,[2]; [7],17%
same,% of sites in which erythema is inhibited by 30%,[2]; [8],83%
same,% of sites in which erythema is inhibited by 50%,[2]; [8],67%
same,% of sites in which erythema is inhibited by 70%,[2]; [8],17%
same,% of sites in which erythema is inhibited by 30%,[2]; [9],86%
same,% of sites in which erythema is inhibited by 50%,[2]; [9],29%
same,% of sites in which erythema is inhibited by 70%,[2]; [9],14%
same,% of sites in which erythema is inhibited by 30%,"[2]; cream formulation II, 0.5% w/w",86%
same,% of sites in which erythema is inhibited by 50%,"[2]; cream formulation II, 0.5% w/w",29%
same,% of sites in which erythema is inhibited by 70%,"[2]; cream formulation II, 0.5% w/w",29%
same,% of sites in which erythema is inhibited by 30%,"[2]; cream formulation II, 1% w/w",88%
same,% of sites in which erythema is inhibited by 50%,"[2]; cream formulation II, 1% w/w",75%
same,% of sites in which erythema is inhibited by 70%,"[2]; cream formulation II, 1% w/w",50%
same,% of sites in which erythema is inhibited by 30%,"[2]; cream formulation II, 2% w/w",100%
same,% of sites in which erythema is inhibited by 50%,"[2]; cream formulation II, 2% w/w",80%
same,% of sites in which erythema is inhibited by 70%,"[2]; cream formulation II, 2% w/w",80%
"O=C(NCCNCC(O)COc1ccc(O)cc1)N1CCOCC1 (stereo not drawn) [xamoterol, reference compound]",activity as topical anti-inflammatory agent,[1],inactive
